Results: patent US20260191991A1, “COMPSTATIN ANALOGS FOR VECTOR-BASED THERAPY” (AMYNDAS PHARMACEUTICALS US LLC, priority 2022, published 2026)
In brackets after ≈: the same amount, converted by molar mass. Each block holds one molecule with its values, some of them ahead of it. Where a SMILES comes first, the peptide text is derived from it. Bridges are numbered along the chain shown (N, C = ends). Where no end group is shown, it is not given here.

Experiments:
C3 [1] = molecular target: T1, C3 (Homo sapiens, UniProt P01024); conditions: background statement; cited from earlier work
Target sequence in this assay (P01024 23-1663): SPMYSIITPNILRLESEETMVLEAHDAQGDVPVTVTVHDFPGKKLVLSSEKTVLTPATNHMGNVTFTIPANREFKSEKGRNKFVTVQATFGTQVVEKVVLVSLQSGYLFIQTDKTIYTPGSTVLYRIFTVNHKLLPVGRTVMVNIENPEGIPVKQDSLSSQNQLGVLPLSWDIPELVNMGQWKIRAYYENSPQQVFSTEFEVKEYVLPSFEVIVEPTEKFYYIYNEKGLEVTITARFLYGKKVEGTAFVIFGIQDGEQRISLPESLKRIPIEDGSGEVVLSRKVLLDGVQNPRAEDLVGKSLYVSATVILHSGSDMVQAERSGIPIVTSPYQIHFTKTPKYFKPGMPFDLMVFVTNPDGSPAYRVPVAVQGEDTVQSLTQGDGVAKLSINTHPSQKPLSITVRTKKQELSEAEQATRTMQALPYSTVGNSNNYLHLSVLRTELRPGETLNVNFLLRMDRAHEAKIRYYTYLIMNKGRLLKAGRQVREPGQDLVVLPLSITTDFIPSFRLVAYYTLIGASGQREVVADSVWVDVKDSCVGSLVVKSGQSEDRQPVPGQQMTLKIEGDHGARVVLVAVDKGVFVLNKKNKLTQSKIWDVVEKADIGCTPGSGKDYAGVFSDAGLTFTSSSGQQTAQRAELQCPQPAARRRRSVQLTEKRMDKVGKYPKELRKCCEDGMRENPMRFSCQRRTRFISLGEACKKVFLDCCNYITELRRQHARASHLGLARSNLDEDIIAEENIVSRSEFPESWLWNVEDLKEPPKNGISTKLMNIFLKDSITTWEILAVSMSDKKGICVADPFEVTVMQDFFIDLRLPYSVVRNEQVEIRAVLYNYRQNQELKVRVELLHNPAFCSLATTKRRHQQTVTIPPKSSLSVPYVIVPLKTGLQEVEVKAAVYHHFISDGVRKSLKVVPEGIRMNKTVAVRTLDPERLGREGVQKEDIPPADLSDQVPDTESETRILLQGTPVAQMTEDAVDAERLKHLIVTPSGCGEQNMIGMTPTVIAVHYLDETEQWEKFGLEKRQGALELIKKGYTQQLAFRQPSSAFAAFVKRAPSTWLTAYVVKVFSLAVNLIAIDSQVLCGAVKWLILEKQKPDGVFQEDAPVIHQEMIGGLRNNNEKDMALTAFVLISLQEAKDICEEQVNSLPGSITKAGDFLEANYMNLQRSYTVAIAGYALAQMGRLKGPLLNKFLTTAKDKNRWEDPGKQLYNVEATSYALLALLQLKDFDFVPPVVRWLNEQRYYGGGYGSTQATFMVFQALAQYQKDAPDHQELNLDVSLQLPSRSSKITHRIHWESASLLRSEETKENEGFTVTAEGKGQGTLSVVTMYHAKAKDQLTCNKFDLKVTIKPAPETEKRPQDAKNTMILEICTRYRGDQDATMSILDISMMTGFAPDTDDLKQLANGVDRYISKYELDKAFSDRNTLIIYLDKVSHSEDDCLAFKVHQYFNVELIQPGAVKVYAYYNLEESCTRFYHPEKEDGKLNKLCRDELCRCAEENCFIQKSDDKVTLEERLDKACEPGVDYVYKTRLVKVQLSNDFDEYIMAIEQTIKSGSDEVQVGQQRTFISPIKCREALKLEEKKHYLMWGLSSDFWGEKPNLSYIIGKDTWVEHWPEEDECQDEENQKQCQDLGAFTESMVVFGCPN

[2] = Solubility in DPBS (Table 1); format: physicochemical; conditions: Dulbecco's phosphate buffered saline; measured as OD (280 nm) at saturation
C3 [3] = molecular target: T1, C3; assay: KD (Table 1); format: binding
[4] = system: laser-induced choroidal neovascularization (CNV); assay: Laser-induced choroidal neovascularization, nonhuman primate model of wet-type AMD, fluorescein angiography lesion grading; format: in vivo, macaque; conditions: for CNV lesion size, % of baseline: third Cp50-treated animal (K-2434)
Method: The effects of the compstatin analogue Cp50 (described above) were compared vs. vehicle, in a nonhuman primate model of wet-type age-related macular degeneration (AMD). In this model, laser-induced choroidal neovascularization (CNV) was performed in the eyes of macaques.
Laser-induced CNV was performed in both eyes of the macaques, as described below. Two weeks (Day 14) after laser photocoagulation, laser lesions were graded (Grade 1-4) via fluorescein angiograms (FA).
Under ketamine (15 mg/kg, i.m.) and xylazine (2 mg/kg, i.m), on Day 15, the eyes were intravitreally (IVT) injected with either vehicle, or compstatin Cp50. FA measurements were performed on weeks 4, 6, 8 10 and 12 (total of five times), following CNV.
Briefly, under light ketamine (10 mg/kg, i.m.) anesthesia, the pupils were dilated with tropicamide/phenylephrine (Mydrin-P® ophthalmic solution; Santen Pharmaceutical Co., Osaka, Japan). For the laser treatment, the macaques were anesthetized with a combination of ketamine (15 mg/kg, i.m.; Daiichi Sankyo Propharma Co., Tokyo, Japan) and xylazine (2 mg/kg, i.m.; Bayer Yakuhin, Osaka, Japan). A green laser (900 mW output; Green Scan Laser Photocoagulator, GYC-500, Nidek, Co., Gamagori, Japan) was applied to eight spots (about 75 μm, 0.1 s duration) around the macula in a grid pattern. The extent of CNV lesion was assessed using fluorescence angiography (FA) at predetermined time points.
On the day of lesion grading, under light ketamine (10 mg/kg, i.m.) anesthesia, the pupils were dilated with tropicamide/phenylephrine (Mydrin-P® ophthalmic solution), and then the macaques were anesthetized with a combination of ketamine (15 mg/kg, i.m.) and xylazine (2 mg/kg, i.m).
Fluorescence Angiography (FA) was used to check the extent of CNV in the back of the eye. Ten percent sodium fluorescein (Fluorescite®; 10 mg/kg, i.v.; Novartis, Tokyo, Japan) was injected and a fundus camera took pictures of the back of the eye at about 1, 3, and 5 min after i.v. injection.
Following randomization, under ketamine (15 mg/kg, i.m.) and xylazine (2 mg/kg, i.m), on Day 15, the eyes were intravitreally (IVT) injected with 50 μl of either vehicle, or Cp50. Before IVT injection, eyes were treated twice daily for three days with levofloxacin hydrate (0.5%; Cravit®, Santen Pharmaceutical Co.).
Under anesthesia, a solution of tropicamide/phenylephrine HCl (Mydrin®-P), levofloxacin hydrate (0.5%; Santen Pharmaceutical Co.), and oxybuprocaine HCl (0.4%; Santen Pharmaceutical Co.) was instilled before dosing.

C3 protein = molecular target: T2, C3 protein (UniProt P01024 23-1663, limits assumed); assay: method not stated (Table 1; target C3 implied)
T2 construct: also called complement component C3; plasma protein C3
T2 sequence (P01024 23-1663 limits assumed): as the sequence (P01024 23-1663) above

Molecule: CC[C@H](C)[C@H](N)C(=O)N[C@H]1CSSC[C@@H](C(=O)N[C@H](C(N)=O)[C@@H](C)O)NC(=O)[C@H](CCCN=C(N)N)NC(=O)[C@H](Cc2cnc[nH]2)NC(=O)[C@H](Cc2cnc[nH]2)NC(=O)CNC(=O)[C@H](Cc2c[nH]c3ccccc23)NC(=O)[C@H](CC(=O)O)NC(=O)[C@H](CCC(N)=O)NC(=O)[C@H](C(C)C)NC(=O)[C@H](C(C)C)NC1=O [Compstatin]
binding affinity for C3 (C3 [1]): micromolar

Solubility DPBS [2]: 0.8 mg/mL (≈ 0.447 mM)
Molecule: CC[C@H](C)[C@H](NC(=O)[C@H](N)Cc1ccc(O)cc1)C(=O)N[C@H]1CSSC[C@@H](C(=O)N(C)[C@H](C(N)=O)[C@@H](C)CC)NC(=O)[C@H](CCCNC(=N)N)NC(=O)[C@H](Cc2c[nH]cn2)NC(=O)[C@H](C)NC(=O)CN(C)C(=O)[C@H](Cc2c[nH]c3ccccc23)NC(=O)[C@H](CC(=O)O)NC(=O)[C@H](CCC(N)=O)NC(=O)[C@H](Cc2cn(C)c3ccccc23)NC(=O)[C@H](C(C)C)NC1=O [Cp40, dTyr-Ile-[Cys-Val-1MeTrp-Gln-Asp-Trp-Sar-Ala-His-Arg-Cys]-mIle, reference compound]

solubility [2]: > 250 mg/mL | Kd (C3 [3]): 0.5 nM
Molecule: CC[C@H](C)[C@H](NC(=O)[C@@H]1CSSC[C@H](NC(=O)[C@@H](NC(=O)[C@@H](N)Cc2ccc(O)cc2)[C@@H](C)CC)C(=O)N[C@@H]([C@@H](C)CC)C(=O)N[C@@H](Cc2c[nH]c3ccccc23)C(=O)N[C@@H](CCC(N)=O)C(=O)N[C@@H](CC(=O)O)C(=O)N[C@@H](Cc2c[nH]c3ccccc23)C(=O)NCC(=O)N[C@@H](C)C(=O)N[C@@H](Cc2c[nH]cn2)C(=O)N[C@@H](CCCNC(=N)N)C(=O)N1)C(=O)N[C@@H](CCCCN)C(=O)N[C@@H](CCCCN)C(=O)N[C@@H](CCCCN)C(=O)O [Cp50] (HELM PEPTIDE1{Y.I.C.I.W.Q.D.W.G.A.H.R.C.I.K.K.K}$PEPTIDE1,PEPTIDE1,3:R3-13:R3$$$V2.0; N-terminus and C-terminus assumed)
mean Grade 4 lesion compared to eyes treated with vehicle ([4]; Weeks 4, 6, 8 and 12, intravitreal injection on Day 15): reduced | CNV lesion size, % of baseline ([4]; by week 6): 50% | CNV lesion size, % of baseline ([4]; by week 12): 25% | CNV lesion size ([4]; two Cp50-treated eyes, as early as week 4 post laser-induced CNV): decline | reduction of Grade 4 lesion ratios ([4]; two Cp50-treated eyes, from week 6 onwards until week 12): 100%

solubility [2]: > 250 mg/mL
Molecule: CC[C@H](C)[C@H](NC(=O)[C@@H]1CSSC[C@H](NC(=O)[C@@H](NC(=O)[C@@H](N)Cc2ccc(O)cc2)[C@@H](C)CC)C(=O)N[C@@H]([C@@H](C)CC)C(=O)N[C@@H](Cc2c[nH]c3ccccc23)C(=O)N[C@@H](CCC(N)=O)C(=O)N[C@@H](CC(=O)O)C(=O)N[C@@H](Cc2c[nH]c3ccccc23)C(=O)NCC(=O)N[C@@H](CCC(=O)O)C(=O)N[C@@H](Cc2c[nH]cn2)C(=O)N[C@@H](CCCNC(=N)N)C(=O)N1)C(=O)N[C@@H](CCCCN)C(=O)N[C@@H](CCCCN)C(=O)N[C@@H](CCCCN)C(=O)O [Cp51] (HELM PEPTIDE1{Y.I.C.I.W.Q.D.W.G.E.H.R.C.I.K.K.K}$PEPTIDE1,PEPTIDE1,3:R3-13:R3$$$V2.0; N-terminus and C-terminus assumed)

Kd (C3 protein): 1 nM
Molecule: YICIWQDWGEHRCIKKK (disulfide 3-13) [Cp51]
